This is an account of results in US4364944A, “Cephalosporins” (Dr. Karl Thomae Gesellschaft mit beschrankter Haftung, priority 1980, dated 1982).

Each structure is given as a SMILES string. Values after ≈ are worked out from the molar mass of the structure shown. Where only a bound is given, the exact number is not on record here.

The subject of one experiment is Prot. rettg. The experiment is described as follows: Minimum inhibiting concentration, serial dilution test in the microtiter system. The class given is cell-based, Proteus rettgeri. Conditions: Providencia rettgeri, 37° C., 18 to 20 hours. The method, then: (§1) These tests were performed using the serial dilution test in the microtiter system. The effect of the test compound on bacteriostasis was tested in a liquid medium at the following concentrations: 128, 64, 32, 16, 8, 4, 2, 1, 0.5, 0.25, 0.12 and 0.06 μgm/ml. The nutrient medium consisted of 10 gm of peptone, 8 gm of meat extract oxoid, 3 gm of sodium chloride, and 2 gm of sec. sodium phosphate diluted with distilled water to […] (pH 7.2-7.4). The age of the primary cultures was approximately 20 hours. The standardization of the bacteria suspension was effected using a photometer according to the method of Eppendorf (test tube .phi. 14 mm, filter 546 nm), using for comparison a barium sulfate suspension formed by the addition of 3.0 ml of 1% barium chloride solution to 97 ml of 1% sulfuric acid. After standardization, the test microorganisms were further diluted to a concentration of 1:1500, using a sodium chloride solution.
(§2) 16 mgm of the particular test compound were put into a 10 ml measuring flask, and the flask was subsequently filled to the mark with the solvent. The further dilution series was standardized with distilled water or the appropriate solvent.
(§3) The depressions of the microtiter plates were filled with 0.2 ml of nutrient medium. 0.01 ml of the appropriate test compound solution was then added, followed by inoculation with 0.1 ml (1 drop) of the standardized bacteria suspension. The bacteria were incubated at 37° C. for 18 to 20 hours. Control tests using only the solvent were carried out simultaneously.
(§4) The readings were made macroscopically to determine the minimum inhibitory concentration (the lowest still bacteriostatically effective concentration).
(§5) Staphylococcus aureus SG 511, Escherichia coli ATCC 11 775, Pseudomonas aeruginosa hamburgensis and Pseudomonas aeruginosa BC 19, Serratia marcescens ATCC 13 800, Klebsiella pneumoniae ATCC 10031 and BC 6, Proteus mirabilis BC 17, Proteus rettgeri BC 7, Enterobacter Cloaceae ATCC 13047 and E. coli R+TEM (β-lactamase carrier).

A further experiment deals with Ent. cloac. ATCC 13047. The experiment is described as above. The class given is cell-based, Enterobacter Cloaceae. The following applies: Enterobacter, ATCC13047, 37° C., 18 to 20 hours. The procedure:
as §1, §2, §3, §4, §5

For the next experiment, the system named is Pseud. Hbg. Described as above. The class given is cell-based, Pseudomonas aeruginosa hamburgensis. Conditions: Pseudomonas aeruginosa, 37° C., 18 to 20 hours. The method, then: as §1, §2, §3, §4, §5
Experiment [1] has as its system E. coli ATCC 11775. The experiment is described as follows: In vivo activity against experimental E. coli infection in mice. Conditions: Escherichia coli, ATCC11775, sc, 168 h; s.c. administration once, 1 hour after i.p. infection; dose at which 50% of the animals survive; 7 days. Set-up: species or system E. coli in female mice of the NMRI strain. The procedure:
A few compounds of the invention and cefuroxim were tested in vivo against experimental infections in mice. E. coli ATCC 11775 was used as the pathogenic bacteria. An intraperitoneal infection was induced with 0.2 ml of a 5% mucin suspension of the bacteria. This corresponds to approximately 1.4×10^6 E. coli bacteria per mouse. Female mice of the NMRI strain were divided into groups of 10 animals, of which 2 groups remained untreated while the remaining groups were treated with various doses of the particular cephalosporin according to the invention for the purpose of determining the ED50 (dose at which 50% of the animals survive). The treatment was applied once (1 hour after infection). The observation period was 7 days. The results of these tests are shown in Table III below, where the numbering of the compounds again corresponds to that used in Table I.

The next experiment relates to E. coli R + TEM. The experiment is described as follows: Minimum inhibiting concentration, serial dilution test in the microtiter system. The class given is cell-based. The following applies: Escherichia coli, read-out: Minimum inhibiting concentration (MIC). The procedure: as §1, §2, §3, §4, §5
The subject of a further experiment is Pseud. BC 19. The description is as above. The following applies: Pseudomonas aeruginosa, 37° C., 18 to 20 hours. The class given is cell-based. The procedure: as §1, §2, §3, §4, §5
For another experiment, the system named is Staph. aureus SG 511. The description is as above. The class given is cell-based. The following applies: Staphylococcus aureus, SG511, 37° C., 18 to 20 hours. The procedure:
as §1, §2, §3, §4, §5

Experiment [2] concerns E. coli ATCC 11775. The description is as above. The class given is cell-based. Conditions: Escherichia coli, ATCC11775, 37° C., 18 to 20 hours. The procedure: as §1, §2, §3, §4, §5
For another experiment, the system named is Prot. mirab. BC 17. The description is as above. The class given is cell-based. The following applies: Proteus mirabilis, 37° C., 18 to 20 hours. The procedure:
as §1, §2, §3, §4, §5

A further experiment has as its system Kl. pneum. ATCC 10031. The description is as above. The class given is cell-based. Conditions: Klebsiella pneumoniae, ATCC10031, 37° C., 18 to 20 hours. The procedure:
as §1, §2, §3, §4, §5

Experiment [3] concerns Serr. marcesc. ATCC 13880. The description is as above. The class given is cell-based. The following applies: Serratia marcescens, ATCC13880, 37° C., 18 to 20 hours. The procedure:
as §1, §2, §3, §4, §5

In the next experiment the test system is Kl. pneum. BC 6. The experiment is described as above. The class given is cell-based. The following applies: Klebsiella pneumoniae, 37° C., 18 to 20 hours. The method, then: as §1, §2, §3, §4, §5
The next experiment concerns K. pneum. 1082 E. The description is as above. The class given is cell-based. Conditions: Klebsiella pneumoniae, 37° C., 18 to 20 hours. The method, then: as §1, §2, §3, §4

Broadly, the ED50 is the dose that gives a 50% effect, or the effect in half of the subjects. Read a low ED50 as greater potency. For `CO/N=C(\C(=O)N[C@@H]1C(=O)N2C(C(=O)O)=C(COC(N)=O)CS[C@H]12)c1ccco1` [Cefuroxim, reference compound], the MIC is 2 µg/mL (≈ 4.71 µM) in the experiment on Prot. rettg.; 32 µg/mL (≈ 75.4 µM) in the experiment with Ent. cloac. ATCC 13047; above 128 µg/mL in the experiment with Pseud. Hbg.; 4 µg/mL (≈ 9.43 µM) with E. coli R + TEM; above 128 µg/mL with Pseud. BC 19; 1 µg/mL (≈ 2.36 µM) against Staph. aureus SG 511. Besides, the MIC was determined as 8 µg/mL (≈ 18.9 µM) in the experiment on E. coli ATCC 11775 [2]; 0.5 µg/mL (≈ 1.18 µM) in the experiment with Prot. mirab. BC 17; 2 µg/mL (≈ 4.71 µM) with Kl. pneum. ATCC 10031; 8 µg/mL (≈ 18.9 µM) in [3]; 4 µg/mL (≈ 9.43 µM) in the experiment on Kl. pneum. BC 6. Besides, the ED50 in the experiment on E. coli ATCC 11775 [1] was above 100 mg/kg.

On to `Cn1nnnc1SCC1=C(C(=O)O)N2C(=O)[C@@H](NC(=O)C(NC(=O)Nc3cnc(NCc4ccco4)nc3O)c3csc(N)n3)[C@H]2SC1` (some centres unmarked) [Compound 1], for which the MIC in the experiment with Prot. rettg. is 0.06 µg/mL (≈ 0.0838 µM); against K. pneum. 1082 E, 16 µg/mL (≈ 22.4 µM); against Ent. cloac. ATCC 13047 it was 0.25 µg/mL (≈ 0.349 µM); in the experiment on Pseud. Hbg. it was 16 µg/mL (≈ 22.4 µM); with E. coli R + TEM, 0.5 µg/mL (≈ 0.699 µM); against Pseud. BC 19, 16 µg/mL (≈ 22.4 µM). Moreover, the MIC against Staph. aureus SG 511 came to 1 µg/mL (≈ 1.4 µM); with E. coli ATCC 11775 [2] it was 0.03 µg/mL (≈ 0.0419 µM); against Prot. mirab. BC 17, 0.01 µg/mL (≈ 0.014 µM); in the experiment with Kl. pneum. ATCC 10031 it was 0.06 µg/mL (≈ 0.0838 µM); in experiment [3], 0.06 µg/mL (≈ 0.0838 µM); against Kl. pneum. BC 6 it was 0.03 µg/mL (≈ 0.0419 µM). In the experiment on E. coli ATCC 11775 [1], the ED50 was determined as 0.8 mg/kg.

Turning to `Cn1nnnc1SCC1=C(C(=O)O)N2C(=O)[C@@H](NC(=O)C(NC(=O)Nc3cnc(NCc4ccc(S(N)(=O)=O)s4)nc3O)c3csc(N)n3)[C@H]2SC1` (some centres unmarked) [Compound 4], the MIC against Prot. rettg. amounted to 0.01 µg/mL (≈ 0.0123 µM); against K. pneum. 1082 E, 8 µg/mL (≈ 9.87 µM); against Ent. cloac. ATCC 13047, 0.06 µg/mL (≈ 0.074 µM); in the experiment on Pseud. Hbg., 16 µg/mL (≈ 19.7 µM); in the experiment with E. coli R + TEM, 0.25 µg/mL (≈ 0.308 µM); in the experiment on Pseud. BC 19 it was 8 µg/mL (≈ 9.87 µM). The MIC in the experiment with Staph. aureus SG 511 was found to be 1 µg/mL (≈ 1.23 µM); against E. coli ATCC 11775 [2], 0.01 µg/mL (≈ 0.0123 µM); in the experiment on Prot. mirab. BC 17 it was 0.01 µg/mL (≈ 0.0123 µM); against Kl. pneum. ATCC 10031 it was 0.03 µg/mL (≈ 0.037 µM); in experiment [3], 0.06 µg/mL (≈ 0.074 µM); in the experiment with Kl. pneum. BC 6 it was 0.03 µg/mL (≈ 0.037 µM). Moreover, the ED50 in the experiment with E. coli ATCC 11775 [1] was below 0.5 mg/kg.

Regarding `Nc1nc(C(NC(=O)Nc2cnc(NCc3ccc(S(N)(=O)=O)s3)nc2O)C(=O)N[C@@H]2C(=O)N3C(C(=O)O)=C(CSc4nnnn4CCO)CS[C@H]23)cs1` (some centres unmarked) [Compound 6], the MIC against Prot. rettg. amounted to 0.06 µg/mL (≈ 0.0713 µM); in the experiment with K. pneum. 1082 E it was 16 µg/mL (≈ 19 µM); with Ent. cloac. ATCC 13047, 0.06 µg/mL (≈ 0.0713 µM); in the experiment with Pseud. Hbg. it was 16 µg/mL (≈ 19 µM); in the experiment with E. coli R + TEM, 0.5 µg/mL (≈ 0.595 µM); against Pseud. BC 19, 8 µg/mL (≈ 9.51 µM). For the same compound, the MIC with Staph. aureus SG 511 is 1 µg/mL (≈ 1.19 µM); against E. coli ATCC 11775 [2], below 0.03 µg/mL; with Prot. mirab. BC 17, 0.03 µg/mL (≈ 0.0357 µM); in the experiment with Kl. pneum. ATCC 10031 it was 0.06 µg/mL (≈ 0.0713 µM); in experiment [3] it was 0.06 µg/mL (≈ 0.0713 µM); with Kl. pneum. BC 6 it was 0.03 µg/mL (≈ 0.0357 µM). In addition, in the experiment with E. coli ATCC 11775 [1], the ED50 is below 0.5 mg/kg.

As for `CO[C@@]1(NC(=O)C(NC(=O)Nc2cnc(NCc3ccc(S(N)(=O)=O)s3)nc2O)c2ccccc2)C(=O)N2C(C(=O)O)=C(CSc3nnnn3C)CS[C@@H]21` (some centres unmarked) [Compound 11], the MIC came to 0.5 µg/mL (≈ 0.611 µM) with Prot. rettg.; 0.25 µg/mL (≈ 0.305 µM) with K. pneum. 1082 E; 0.5 µg/mL (≈ 0.611 µM) against Ent. cloac. ATCC 13047; 16 µg/mL (≈ 19.5 µM) against Pseud. Hbg.; 0.25 µg/mL (≈ 0.305 µM) in the experiment with E. coli R + TEM; 8 µg/mL (≈ 9.77 µM) with Pseud. BC 19. Moreover, the MIC in the experiment with Staph. aureus SG 511 was found to be 1 µg/mL (≈ 1.22 µM); against E. coli ATCC 11775 [2] it was 0.12 µg/mL (≈ 0.147 µM); with Prot. mirab. BC 17, 0.06 µg/mL (≈ 0.0733 µM); against Kl. pneum. ATCC 10031, 0.25 µg/mL (≈ 0.305 µM); in [3], 0.25 µg/mL (≈ 0.305 µM); against Kl. pneum. BC 6, 0.25 µg/mL (≈ 0.305 µM). The compound also had an ED50 with E. coli ATCC 11775 [1] of around 5 mg/kg.

With `CO[C@@]1(NC(=O)C(NC(=O)Nc2cnc(NCc3ccco3)nc2O)c2ccccc2)C(=O)N2C(C(=O)O)=C(CSc3nnnn3C)CS[C@@H]21` (some centres unmarked) [Compound 14], the MIC came to 1 µg/mL (≈ 1.38 µM) in the experiment with Prot. rettg.; 0.25 µg/mL (≈ 0.345 µM) in the experiment with K. pneum. 1082 E; 1 µg/mL (≈ 1.38 µM) in the experiment with Ent. cloac. ATCC 13047; 8 µg/mL (≈ 11.1 µM) against Pseud. Hbg.; 0.25 µg/mL (≈ 0.345 µM) in the experiment on E. coli R + TEM; 8 µg/mL (≈ 11.1 µM) with Pseud. BC 19. For the same compound, the MIC in the experiment with Staph. aureus SG 511 was determined as 0.5 µg/mL (≈ 0.691 µM); against E. coli ATCC 11775 [2] it was 0.12 µg/mL (≈ 0.166 µM); against Prot. mirab. BC 17, 0.12 µg/mL (≈ 0.166 µM); against Kl. pneum. ATCC 10031, 0.25 µg/mL (≈ 0.345 µM); in experiment [3], 0.25 µg/mL (≈ 0.345 µM); with Kl. pneum. BC 6 it was 0.25 µg/mL (≈ 0.345 µM). Besides, the ED50 in the experiment with E. coli ATCC 11775 [1] was in the range of 2.5 to 5 mg/kg.
